Data reported in PMC5513091, “A novel Alzheimer’s disease drug candidate targeting inflammation and fatty acid metabolism” (Alzheimer's Research & Therapy, 2017).

Tested on: rat hippocampal neurons
Experiment: Aβ toxicity (extracellular)
Format: cell-based
Conditions: Hippocampal neuron, read-out: Half-maximal effective concentration, Aβ toxicity (extracellular)

Cc1ccc(N(/N=C/c2cccc(OC(F)(F)F)c2)C(=O)C(F)(F)F)c(C)c1 [CAD-31] gave an EC50 of 27 nM.
